The subject of assay [1] is RARγ. Put plainly: Transactivation of chimerical receptor RARγ-ERcassette, transient transfection of HeLa cells. The format is cell-based. The following applies: -6 log M (1 μM); 100% = TTNPB 10^-8 M. An excerpt:
(§1) The HeLa cells are co-transfected by a plasmid which codes for a retinoic receptor in which the C domain of bonding to the DNA is substituted by that of the receptor to RE estrogens, and a plasmid which places the expression of the luciferase under the control of an ERE (Element of Response to Estrogens). The expressed chimerical receptors are designated as RARα-ERcassette, RARβ-ERcassette, RARγ-ERcassette and RXRα-ERcassette. The A, B, D, E and F regions of the natural receptor are preserved as well as the transcriptional co-operation between the activation domains AF-1 and AF-2. These transitory transfection experiments follow the method of co-precipitation to calcium phosphate. The HeLa cells are co-transfected by […] of plasmid coding for the chimerical receptor, […] of reporter plasmid and […] of expression vector CMV-β-galactosidase used as an internal control of transfection. 24 hours after the transfection, the cells are incubated for 16 hours with the different effectors.
(§2) In this type of chimerical receptor, the C domain of bonding to the DNA of RAR is substituted by that of the receptor to the RE estrogens. The protein obtained is close to the natural RAR receptor and preserves the transcriptional properties of the AF-1 and AF-2 domains. It modulates the transcription by means of an ERE. This RAR-ERcassette model allows one to observe a transcriptional response to a more physiological ligand.
(§3) The study of the selectivity of the compounds was carried out with the RAR-ERcassette chimerical receptors model.
(§4) On one and the same line in the Table, the cis (Z) compound represents the isomeric structure of the trans (E) compound.

For assay [2], the system named is ERE. Kind of assay: Anti-estrogenic effect, MELN cellular lineage (MCF-7 with ERE-βGlob-Luc) activated by estradiol. The format is cell-based, human. The following applies: for inhibition at 1 µM: -6 log M (10^-6 M), 10^-9 M estradiol. Here is the method: MCF-7 cells express RARα,γ and RXRα. The transfection of MCF-7 cells by an estrogen-dependent gene (ERE-βGlob-Luc) has permitted the establishment of the MELN cellular lineage, used to determine the anti-oestrogenic activity of the retinoids. These cells contain the gene of the luciferase under the transcriptional control of the promoter of the βGlobine and of the response element ERE isolated from the gene of chicken vitelogenine A2. The experiments are carried out with MELN cells activated by 10^-9 M estradiol. The level of base activity of the MELN cells is obtained with the anti-estrogen 1 μM 4-OH-tamoxifen (hydroxytamoxifen).
The effect of the products tested on the cells activated by 10^-9 M estradiol is expressed as a percentage, the level of base activity being deducted.

Assay [3] relates to RAR. Put plainly: RAR-ERcassette model, specificity profile (transient transfection of HeLa cells). Format: cell-based.
Source text: as §1, §2, §3

The subject of assay [4] is RARE. Kind of assay: HRLN transactivation (stably transfected HeLa, RARE3-tk-Luc, endogenic receptors). Format: cell-based. An excerpt: The cellular lineages HRLN and HRL+N allow one to study the activation of an RARE by endogenic receptors using ligands at physiological concentrations. These lineages derive from HeLa cells transfected in a stable fashion by a reporter gene which places the expression of the gene of the luciferase under the control of a nuclear response element RARE (RARE3 -tk-Luc). The HeLa cells express all the known receptors of the retinoic acid (RARα,β,γ and RXRα,β,γ) with a predominance of RARα and RXRα. The response element RARE used for the HRLN cells corresponds to the sequence of the natural gene of the RARβ receptor (GGTTCAnnnnnAGTTCA). The HRL+N cells comprise the sequence GAGTGAnnnnnCGGTGA.

The subject of assay [5] is RARα. Kind of assay: Transactivation of chimerical receptor RARα-ERcassette, transient transfection of HeLa cells. Format: cell-based. The following applies: for RAR-ERcassette RARα transactivation (%): 100% = TTNPB 10^-8 M.
Source text: as §1, §2, §3, §4

Assay [6] has as its system RARβ. Put plainly: Transactivation of chimerical receptor RARβ-ERcassette, transient transfection of HeLa cells. Format: cell-based. The note with it: -6 log M (1 μM); 100% = TTNPB 10^-8 M.
Source text: as §1, §2, §3, §4

The subject of assay [7] is AP-1. Kind of assay: Anti-AP-1 effect, MTLN cellular lineage (MCF-7 with (TRE)3-tk-Luc) activated by TPA. Format: cell-based, human. As to the method: The anti-factor AP-1 transrepressor effect of retinoids is determined using the MTLN lineage, coming from MCF-7 cells transfected in a stable fashion by a vector p(TRE)3 -tk-Luc which places the expression of the gene of luciferase under the control of […]. TPA activates the AP-1 complex formed from proteins of the family of nuclear proto-oncogenes (c-Jun and c-Fos). […] The experiments ware made with the MTLN cells activated by 10^-7 M TPA.
The effect of the compounds on the MTLN cells activated by 10^-7 M TPA is expressed as a percentage. […] The inhibitive properties of the products are calculated after deduction of the base activity of the cells. The percentages reported correspond to a range of inhibitions determined from several experiments.

Assay [8] deals with T-47D cells. Kind of assay: Anti-proliferation effect, estrogen-induced growth of T-47D cells. Format: cell-based, human. The following applies: Homo sapiens, T47D, 168 h, read-out: T-47D IC50 (growth inhibition by 50%). Here is the method:
So as to test the anti-proliferation effect of the retinoids, growth experiments under oestrogenic conditions were carried out on cells MCF-7 and T-47D. These are the human estrogen-dependent mammary cancer cells which express the receptor to RE estrogens. The effect of the molecules is evaluated after 7 days of culture in oestrogenic conditions (estradiol 10^-9 M) by dosing the cellular DNA. The cells are distributed in 24 well plates at a density of 2×10^4 cells per well. The tests with the different retinoids are carried out in triplicate and the culture medium is changed after 4 days of growth.
The effect of the retinoids on the growth of MCF-7 and T-47D cells is evaluated after 7 days of culture in the presence of 10^-9 M estradiol by dosing the cellular DNA.

[9] abbreviates: Homo sapiens, read-out: Anti-oestrogenic effect, Inhibition (%).

“Also recorded” adds a separate entry of the source.

In the case of `CC1(C)CCC(C)(C)c2cc(/C=C3/CCCc4cc(C(=O)O)ccc43)ccc21` [CB80830, (Z) 1-[2-(5,6,7,8-tetrahydro-5,5,8,8-tetramethyl)naphthalenylmethylene]-1,2,3,4-tetrahydronaphthalene-6-carboxylic acid], the “RAR-ERcassette RARγ transactivation (%)” value in assay [1] is reported as 1%. The inhibition – broadly, the percentage by which the read-out fell short of the control – at 1 µM in assay [2] (setting [9]) was 2%. For the same compound, the “RAR-ERcassette profile in words” value in assay [3] is listed as “The same result is observed”. For the same compound, in assay [4], the “HRLN transactivation in words” value is “inactive”. In assay [4] (Homo sapiens, HeLa), this compound had an activation at 1 µM of 4%. In addition, in assay [5] (-6 log M (1 μM)), the “RAR-ERcassette RARα transactivation (%)” value came to 2%. Also, the “RAR-ERcassette RARβ transactivation (%)” value in assay [6] turned out to be 0%.
In the case of `CCCCCCCOc1cc2c(cc1/C(C)=C/c1ccc(C(=O)O)cc1)C(C)(C)CCS2(=O)=O` [Ro 41-5253], the “Anti-AP-1 effect (MTLN) in words” value in assay [7] is on record as “does not allow the inhibition induced by TTNPB to be totally lifted”. Also, the “Anti-estrogenic effect (MELN) in words” value in assay [2] is “raises the inhibitor effect of Am580 and also of TTNPB”. Also, the “HRLN transactivation in words” value in assay [4] is “totally abolishes the response of Am580 and partially abolishes that of TTNPB”.
For `Cc1cc2c(cc1/C=C1\CCc3cc(C(=O)O)ccc31)C(C)(C)CCC2(C)C` [CB40341, (E) 1-[2-(5,6,7,8-tetrahydro-3,5,5,8,8-pentamethyl)naphthalenylmethylene]-2,3-dihydro-1H-indene-5-carboxylic acid], the “RAR-ERcassette RARγ transactivation (%)” value in assay [1] is 79%. Moreover, the “RAR-ERcassette profile in words” value in assay [3] is “RARβ,γ specificity; also recorded: RARβ,γ selectivity”. For the same compound, in assay [4], the “HRLN transactivation in words” value was “partial transactivation”. Further, the activation at 1 µM in assay [4] (Homo sapiens, HeLa) was 30%. The “RARα transactivation (RAR-ERcassette) in words” value in assay [5] is “inactive on RARα”. In addition, the “RAR-ERcassette RARα transactivation (%)” value in assay [5] (-6 log M (1 μM)) is 14%. For the same compound, in assay [6], the “RAR-ERcassette RARβ transactivation (%)” value turned out to be 75%.
On to `CC1=C(/C=C/C(C)=C\C=C\C(C)=C\C(=O)O)C(C)(C)CCC1` [9-cis RA, reference compound], for which the “Anti-AP-1 effect, Inhibition (%)” value in assay [7] (-8 log M, 10^-7 M TPA, range of several experiments) is recorded as 30-37%. In addition, the inhibition at 0.1 µM in assay [2] (setting [9]) is 35%. Also, in assay [8], the IC50 – broadly, the concentration needed to halve the response being measured – is 25.1 ± 1.4 nM. Besides, the “RAR-ERcassette profile in words” value in assay [3] is listed as “induce an over-expression of luciferase in comparison to the induction brought about by a synthetic compound (TTNPB)”. In addition, in assay [4], the “HRLN transactivation in words” value is on record as “dose-dependent activation”. In assay [4] (Homo sapiens, HeLa, read-out: HRLN transactivation E max %), the Emax worked out at 196%. The “RAR-ERcassette RARα transactivation (%)” value in assay [5] (-6 log M (1 μM)) is 348%; in assay [5] (-7 log M), 187%; in assay [5] (-8 log M), 60%; in assay [5] (-9 log M), 7%.
Regarding `CC1(C)CCC(C)(C)c2cc(/C=C3\CCc4cc(C(=O)O)ccc43)ccc21` [CB78937, (E) 1-[2-(5,6,7,8-tetrahydro-5,5,8,8-tetramethyl)naphthalenylmethylene]-2,3-dihydro-1H-indene-5-carboxylic acid], in assay [1], the “RAR-ERcassette RARγ transactivation (%)” value is listed as 93%. Also, in assay [2] (setting [9]), the inhibition at 1 µM is 4%. For the same compound, the “RAR-ERcassette profile in words” value in assay [3] was “RARβ,γ specificity; also recorded: RARβ,γ selectivity”. The “HRLN transactivation in words” value in assay [4] is given as “partial transactivation”. The activation at 1 µM in assay [4] (Homo sapiens, HeLa) worked out at 25%. The “RARα transactivation (RAR-ERcassette) in words” value in assay [5] was “inactive on RARα”. Moreover, the “RAR-ERcassette RARα transactivation (%)” value in assay [5] (-6 log M (1 μM)) is reported as 18%. Moreover, in assay [6], the “RAR-ERcassette RARβ transactivation (%)” value turned out to be 65%.
Consider `CC1(C)CCC(C)(C)c2cc(/C=C3/CCc4cc(C(=O)O)ccc43)ccc21` [CB27871], for which the “RAR-ERcassette RARγ transactivation (%)” value in assay [1] came to 67%. Besides, the “HRLN transactivation in words” value in assay [4] is recorded as “partial transactivation”. The activation at 1 µM in assay [4] (Homo sapiens, HeLa) stood at 27%. Moreover, the “RAR-ERcassette RARα transactivation (%)” value in assay [5] (-6 log M (1 μM)) is recorded as 29%. Further, the “RAR-ERcassette RARβ transactivation (%)” value in assay [6] is 36%.
As for `CC1(C)CCC(C)(C)c2cc(/C=C3\CCCc4cc(C(=O)O)ccc43)ccc21` [CB66049, (E) 1-[2-(5,6,7,8-tetrahydro-5,5,8,8-tetramethyl)naphthalenylmethylene]-1,2,3,4-tetrahydronaphthalene-6-carboxylic acid], the “RAR-ERcassette RARγ transactivation (%)” value in assay [1] was found to be 8%. Also, in assay [3], the “RAR-ERcassette profile in words” value was “The same result is observed”. Besides, the “HRLN transactivation in words” value in assay [4] was “inactive”. In addition, the activation at 1 µM in assay [4] (Homo sapiens, HeLa) turned out to be 0%. In addition, the “RAR-ERcassette RARα transactivation (%)” value in assay [5] (-6 log M (1 μM)) turned out to be 0%. Further, the “RAR-ERcassette RARβ transactivation (%)” value in assay [6] came out at 0%.
In the case of `Cc1cc2c(cc1/C=C1\CCc3cc(-c4nnn[nH]4)ccc31)C(C)(C)CCC2(C)C` [CB23804, (E) 5-[1-[2-(5,6,7,8-tetrahydro-3,5,5,8,8-pentamethyl)naphthalenylmethylene]-2,3-dihydro-1H-indenyl]-1H-tetrazole], the “RAR-ERcassette RARγ transactivation (%)” value in assay [1] worked out at 19%. In assay [2] (setting [9]), the inhibition at 1 µM is 0%. In addition, the “RAR-ERcassette profile in words” value in assay [3] is “weakly active”. Besides, in assay [4], the “HRLN transactivation in words” value is “slightly active”. In addition, the activation at 1 µM in assay [4] (Homo sapiens, HeLa) worked out at 15%. Further, in assay [5] (-6 log M (1 μM)), the “RAR-ERcassette RARα transactivation (%)” value was 4%. Besides, in assay [6], the “RAR-ERcassette RARβ transactivation (%)” value turned out to be 28%.
`CC1Cc2cc(C(=O)O)ccc2/C1=C/c1ccc2c(c1)C(C)(C)CCC2(C)C` (centres unmarked) [CB52809, (E) 1-[2-(5,6,7,8-tetrahydro-5,5,8,8-tetramethyl)naphthalenylmethylene]-2,3-dihydro-2-methyl-1H-indene-5-carboxylic acid]: the “RAR-ERcassette RARγ transactivation (%)” value in assay [1] came out at 13%. In assay [2] (setting [9]), the inhibition at 1 µM amounted to 0%. In assay [4] (Homo sapiens, HeLa), this compound registered an activation at 1 µM of 0%. Moreover, the “RAR-ERcassette RARα transactivation (%)” value in assay [5] (-6 log M (1 μM)) amounted to 5%. Besides, the “RAR-ERcassette RARβ transactivation (%)” value in assay [6] was 0%.
For `CC1(C)CCC(C)(C)c2cc(/C=C3\CCc4cc(-c5nnn[nH]5)ccc43)ccc21` [CB99811, (E) 5-[1-[2-(5,6,7,8-tetrahydro-5,5,8,8-tetramethyl)naphthalenylmethylene]-2,3,-dihydro-1H-indenyl]-1H-tetrazole], in assay [1], the “RAR-ERcassette RARγ transactivation (%)” value is 14%. In assay [3], the “RAR-ERcassette profile in words” value is “weakly active”. Besides, the “RAR-ERcassette RARα transactivation (%)” value in assay [5] (-6 log M (1 μM)) was found to be 3%. Further, the “RAR-ERcassette RARβ transactivation (%)” value in assay [6] stood at 11%.
